According to patent US20060052453A1, “Agent for treating Parkinson's disease comprising astrocyte function-improving agent as active ingredient” (priority 2000, published 2006):

Assays:
dogs = assay: Single intravenous dose toxicity in dogs; format: in vivo; details: single dose of 100 mg/kg
Source text: It has been confirmed that the compounds of the present invention represented by formula (I) have such low toxicity as being sufficiently safe in using as drugs.

[1] = test system: Experimental Model of Parkinson's Disease Induced by Administration of MPTP; assay: Experimental model of Parkinson's disease induced by administration of MPTP; striatal dopamine and DOPAC content by HPLC; format: in vivo, mice; details: for DOPAC content / Dopamine content: average ± standard deviation
Description: Improvement Effect of the Compound of the Present Invention in Experimental Model of Parkinson's Disease Induced by Administration of MPTP Male C57BL/6 mice (body weight: 20 to 28 g) were divided into groups each having 6 to 12 animals. Without anesthetizing, MPTP (10 mg/kg; 1-methyl-4-phenyl-1,2,3,6-tetrahydropyridine hydrochloride) was intraperitoneally administered to the mice 4 times at intervals of 1 hour (Brain Res., 824: 224-231 (1999)). To the models thus prepared, Compound A of the present invention ((R)-2-propyloctanoic acid) was administered after 1, 6, 24 and 48 hours. Three days after the final administration, striata of the mice were collected. After weighing, the striata were immediately frozen and stored. Then, dopamine content and DOPAC (3,4-dihydroxypyenylacetate) content were measured by HPLC in a conventional manner and evaluated. […] Dunnett's multiple comparison test (both sides) was performed on the basis of the data of the group with the administration of MPTP alone. The values in Table 1 are shown by the average±the standard deviation.

[2] = Compound A alone 30 mg/kg, no MPTP, male C57BL/6 mice, striatum
[3] = MPTP (10 mg/kg i.p. x4) + compound A 3 mg/kg at 1, 6, 24 and 48 hours, striatum 3 days after final administration
[4] = MPTP (10 mg/kg i.p. x4) + compound A 10 mg/kg at 1, 6, 24 and 48 hours, striatum 3 days after final administration
[5] = MPTP (10 mg/kg i.p. x4) + compound A 30 mg/kg at 1, 6, 24 and 48 hours, striatum 3 days after final administration

CCCCCC[C@@H](CCC)C(=O)O [Compound A, (R)-2-propyloctanoic acid]
Death (dogs): no case of death was observed | DOPAC content [1, 2]: 2.97 ± 0.49 µg/g | Dopamine content [1, 2]: 12.17 ± 1.41 µg/g | DOPAC content [1, 3]: 1.30 ± 0.31 µg/g | Dopamine content [1, 3]: 4.13 ± 1.48 µg/g | DOPAC content [1, 4]: 2.07 ± 0.77 µg/g | Dopamine content [1, 4]: 5.45 ± 2.00 µg/g | DOPAC content [1, 5]: 2.26 ± 0.52 µg/g | Dopamine content [1, 5]: 6.75 ± 2.72 µg/g | Dopamine and DOPAC content compared with the group of MPTP alone ([1]; MPTP + compound groups vs MPTP alone, Dunnett's multiple comparison test): significantly increased dopamine and DOPAC content depending on the dose | Adverse effect when used alone ([1]; compound alone in normal animals, data compared with control group): no adverse effect
